Key:
caspase-3 activation = assay: Caspase-3 activation by gel filtration fractions of Apaf-1 complexes; assay type: biochemical; details: 20 μM compound, 0.15 μM cyto c; for extent of caspase-3 activation: vehicle alone 0.36
Experimental: FIG. 7 depicts activity of compounds 1-5 at low cyto c concentrations in a purified system. Apaf-1 was incubated with vehicle, cyto c, or cyto c plus 20 μM compound as indicated, and then separated on a Superose 6 gel filtration column. Individual fractions were assayed for relative Apaf-1 concentrations by capture ELISA (bar graph), or the ability to activate procaspase-3 processing in lysates (line graph). The percent of Apaf-1 in apoptosomes was determined by dividing the amount of Apaf-1 in fractions 8-11 by the total amount of Apaf-1. The extent of caspase-3 activation (given in arbitrary units) corresponds to the area under the curve for fractions 8-11 in each panel. Black bars represent fractions used for calculations.
As the compounds appeared to be acting prior to caspase activation, their effect on the oligomerization of Apaf-1 was assessed (K. Cain, D. G. Brown, C. Langlais, G. M. Cohen, J Biol Chem 274, 22686-92 (1999); K. Cain et al., J Biol Chem 275, 6067-70 (2000)). By gel filtration, Apaf-1 normally runs as a monomer of ˜140 kD (FIG. 7) (see, A. Saleh, S. M. Srinivasula, S. Acharya, R. Fishel, E. S. Alnemri, J Biol Chem 274, 17941-5 (1999)). Incubation of Apaf-1 with 5 μM cyto c induces over 90% of the Apaf-1 to form large complexes of ˜700 kD, whereas incubation with 0.15 μM cyto c concentration allowed only 22% of the Apaf-1 to assemble into complexes. However, the addition of 20 μM compound 2 or 5 at the lower cyto c concentration caused the formation of two higher molecular weight complexes: a major peak that runs at the same retention time as the complex seen at 5 μM cyto c (˜700 kD), and a minor peak that elutes in the void volume. […] To determine if the Apaf-1 complexes induced by the compounds at the lower cyto c concentration are competent for caspase activation, procaspase-9, procaspase-3, and dATP were added to fractions from the gel filtration column and assayed for caspase-3 activation. Fractions from samples that had been incubated with 5 μM cyto c strongly activated caspase-3 processing (FIG. 7, panel ii, line graph), with the maximal caspase activation corresponding to the fractions that contained the apoptosome complex. On the other hand, no fractions form the sample without cyto c activated capsase-3 processing (panel i). There was a small but measurable amount of capsase-3 activation when the cyto c concentration was reduced to 0.15 μM (panel iii). However, the extent of caspase-3 activation at the reduced level of cyto c increased approximately 4-fold when either compound 2 or 5 was added to the reaction (from 0.36 arbitrary units for the vehicle alone to 1.57 and 1.4 for compounds 2 and 5, respectively, panels iv and vi). […]

Jurkat cells = assay: PARP cleavage in Jurkat cells (immunoblot); assay type: cell-based, human; details: 50 μM compound or 1 μM staurosporin, 6 hr
Experimental: (C) DNA fragmentation analysis. […] Cell viability assay.
Compounds were then tested for their ability to induce apoptosis in live cells. The ability of the compounds to activate caspase-3 in a Jurkat cell line was first assayed. […] This same pattern was seen when we assayed for the cleavage of poly (ADP-ribose) polymerase (PARP), a cellular substrate of caspases-3 and -7 (see, D. W. Nicholson, Cell Death Differ 6, 1028-42 (1999)). Upon apoptosis, PAR-P is cleaved from a 116 kD to an 85 kD protein.

[1] = tested on: caspase-3 (DEVDase activity); assay: DEVDase fluorescence screen in HeLa cell S-100 cytoplasmic extracts; assay type: biochemical; details: in vitro fluorescence assay, HeLa S-100 extracts with cyto c
From the text: In order to identify compounds that modulate apoptosis, a chemical genetics approach was utilized to screen for molecules that target components of the apoptosis pathway (see, T. U. Mayer et al., Science 286, 971-4 (1999)). An in vitro screen using cytoplasmic extracts was adapted for apoptosis to a 96-well format and used to test an in-house library of ˜3500 compounds (see, T. Fernandes-Alnemri et al, Proc Natl Acad Sci USA 93, 7464-9 (1996); X. Liu, C. N. Kim, J. Yang, R. Jemmerson, X. Wang, Cell 86, 147-57 (1996); L. M. Leoni et al., Proc Natl Acad Sci USA 95, 9567-71 (1998)). Briefly, individual compounds were added to HeLa cell S-100 cytoplasmic extracts at a final concentration of 1 mM and apoptosis was induced by adding bovine heart cyto c (HeLa cell cytoplasmic extracts were prepared according to previously published reports (see, P. Li et al., Cell 91, 479-89 (1997)). Compounds were distributed into 96-well microtiter plates at a final concentration of 1 mM. To each well was added 250 μg of total protein from cytoplasmic extracts in HEB buffer (50 mM Hepes pH 7.4, 50 mM KCl, 5 mM EGTA, 2 mM MgCl), with 2 mM DTT, 2 μM cyto c, and 0.5 μM DEVD-AFC substrate in a total of 150 μL. Plates were incubated at 37° C. and fluorescence was read in a LJL Biosystems plate reader at 10 min intervals). Activation of caspase-3 was monitored by cleavage of a fluorogenic substrate, Asp-Glu-Val-Asp-7-amino-4-trifluoromethylcoumarin (DEVDase activity). As designed, the DEVDase fluorescence screen encompasses the release of cyto c from the mitochondria to the activation of caspase-3. Possible targets include cyto c, Apaf-1, caspase-9, caspase-3, inhibitors of apoptosis (IAPs), and possible unidentified components present in the cytosol.

Compound: O=C1C(=O)N(Cc2ccc(Cl)c(Cl)c2)c2ccccc21 [Compound 2]
- increase in caspase-3 activation over vehicle alone (caspase-3 activation): approximately 4 fold
- extent of caspase-3 activation (caspase-3 activation): 1.57 arbitrary units
- cleavage of PARP (Jurkat cells): complete cleavage
- activation of DEVDase activity [1]: strongly activated DEVDase activity

Compound: O=C(NCc1ccc(Cl)c(Cl)c1)OC1CCc2ccccc21 (stereo not drawn) [Compound 4]
- activation of DEVDase activity [1]: no activity

Compound: O=C(NCc1ccc(Cl)c(Cl)c1)OC1CCc2ccccc21 (stereo not drawn) [Compound 5]
- increase in caspase-3 activation over vehicle alone (caspase-3 activation): approximately 4 fold
- extent of caspase-3 activation (caspase-3 activation): 1.4 arbitrary units
- cleavage of PARP (Jurkat cells): limited processing
- activation of DEVDase activity [1]: strongly activated DEVDase activity
